The experiment deals with VprBP/DCAF1 (Vpr binding protein) (Homo sapiens, UniProt Q9Y4B6). Briefly: Western blot of H2AT120p (VprBP substrate mark) in G361 and MeWo melanoma cells treated […] h with […] B32B3. Type of experiment: cell-based. (In western blotting, separated proteins are transferred to a membrane and probed.)

Structures are written as SMILES.

Sequence of VprBP/DCAF1 (Vpr binding protein) (Q9Y4B6 whole entry): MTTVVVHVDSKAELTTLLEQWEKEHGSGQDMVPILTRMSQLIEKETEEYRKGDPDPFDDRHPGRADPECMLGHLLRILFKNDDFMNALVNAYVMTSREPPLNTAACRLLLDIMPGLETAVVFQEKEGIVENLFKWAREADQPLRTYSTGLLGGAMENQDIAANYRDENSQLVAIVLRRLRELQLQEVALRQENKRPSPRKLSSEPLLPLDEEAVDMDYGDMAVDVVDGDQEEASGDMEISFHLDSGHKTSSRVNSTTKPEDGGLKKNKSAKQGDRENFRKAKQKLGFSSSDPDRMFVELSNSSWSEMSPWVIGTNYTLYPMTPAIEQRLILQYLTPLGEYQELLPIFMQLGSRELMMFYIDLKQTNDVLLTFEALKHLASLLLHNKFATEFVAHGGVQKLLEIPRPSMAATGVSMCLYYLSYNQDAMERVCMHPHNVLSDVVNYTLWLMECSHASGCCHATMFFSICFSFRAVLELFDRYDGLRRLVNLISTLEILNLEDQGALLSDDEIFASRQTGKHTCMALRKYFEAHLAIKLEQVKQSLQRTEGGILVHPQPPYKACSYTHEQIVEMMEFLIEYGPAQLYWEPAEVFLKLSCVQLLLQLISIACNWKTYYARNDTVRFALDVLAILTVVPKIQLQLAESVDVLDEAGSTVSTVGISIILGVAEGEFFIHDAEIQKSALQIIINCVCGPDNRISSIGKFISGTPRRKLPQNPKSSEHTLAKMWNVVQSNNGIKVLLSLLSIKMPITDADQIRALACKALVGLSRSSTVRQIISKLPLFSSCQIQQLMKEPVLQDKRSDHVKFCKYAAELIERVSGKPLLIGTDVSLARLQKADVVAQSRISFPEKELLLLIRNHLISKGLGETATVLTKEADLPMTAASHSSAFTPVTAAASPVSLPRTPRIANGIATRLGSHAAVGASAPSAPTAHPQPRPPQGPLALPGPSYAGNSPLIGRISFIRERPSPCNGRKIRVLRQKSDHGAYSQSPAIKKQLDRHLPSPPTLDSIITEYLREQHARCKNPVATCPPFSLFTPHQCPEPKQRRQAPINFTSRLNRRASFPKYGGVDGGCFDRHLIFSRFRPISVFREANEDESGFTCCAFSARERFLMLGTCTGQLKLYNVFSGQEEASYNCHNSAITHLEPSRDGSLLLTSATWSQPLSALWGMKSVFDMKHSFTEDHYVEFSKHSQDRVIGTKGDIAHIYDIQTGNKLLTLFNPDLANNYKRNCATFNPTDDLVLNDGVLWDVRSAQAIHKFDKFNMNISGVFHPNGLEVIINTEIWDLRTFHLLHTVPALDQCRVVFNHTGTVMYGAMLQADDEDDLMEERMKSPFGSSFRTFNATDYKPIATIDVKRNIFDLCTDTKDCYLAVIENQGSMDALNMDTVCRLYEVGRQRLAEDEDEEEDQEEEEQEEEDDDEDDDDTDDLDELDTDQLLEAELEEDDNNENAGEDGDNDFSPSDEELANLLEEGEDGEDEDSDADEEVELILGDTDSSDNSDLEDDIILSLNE

As to `C(=N\Nc1ncnc2sc3c(c12)CCCC3)/c1c[nH]c2ccccc12` [B32B3], the IC50 stood at 100 nM.

By IC50 is commonly meant the concentration needed to halve the response being measured.

Values taken from PMC10526264, “VprBP/DCAF1 Triggers Melanomagenic Gene Silencing through Histone H2A Phosphorylation” (Biomedicines, 2023).
